Reference: EP0699675A2, “3-(4-(1-Substituted-4-piperazinyl)butyl)-4-thiazolidinone and related compounds” (HOECHST-ROUSSEL PHARMACEUTICALS INCORPORATED, priority 1994, dated 1996)
Structures can show the parent of a compound that is named as a salt.

Test system: CK-1 male mice
Experiment: climbing mice assay (apomorphine-induced climbing), antipsychotic activity
Assay type: in vivo
Settings: 30 minutes prior to apomorphine 1.5 mg/kg subcutaneously, climbing scores totaled over readings at 10, 20 and 30 minutes, control group set to 100%
Procedure: Antipsychotic activity is determined in the climbing mice assay by methods similar to those described by P. Protais, et al., Psychopharmacol., 50, 1 (1976) and B. Costall, Eur. J. Pharmacol., 50, 39 (1978).
The subject CK-1 male mice (23-27 grams) are group-housed under standard laboratory conditions. The mice are individually placed in wire mesh stick cages (4" x 4" by 10") and are allowed one hour for adaptation and exploration of the new environment. Then apomorphine is injected subcutaneously at 1.5 mg/kg, a dose causing climbing in all subjects for 30 minutes. Compounds to be tested for antipsychotic activity are injected intraperitoneally 30 minutes prior to the apomorphine challenge at a screening dose of 10mg/kg.
For evaluation of climbing, 3 readings are taken at 10,20 and 30 minutes after apomorphine administration according to the following scale:
Mice consistently climbing before the injection of apomorphine are discarded.
With full-developed apomporphine climbing, the animals are hanging onto the cage walls, rather motionless, over longer periods of time. By contrast, climbs due to mere motor stimulation usually last only a few seconds.
The climbing scores are individually totaled (maximum score: 6 per mouse over 3 readings) and the total score of the control group (vehicle intraperitoneally-apomorphine subcutaneously) is set to 100%. ED₅₀ value with 95% confidence limits, calculated by a linear regression analysis of some of the compounds of this invention.

SMILES | Antipsychotic Activity Score (Dose 9.5 mg/kg ip) | Antipsychotic Activity Score (Dose 20 mg/kg ip)
CC1SC(C)(C)C(=O)N1CCCCN1CCC(c2csc3ccccc23)CC1.O=C(O)/C=C\C(=O)O (stereo not drawn) [3-[4-[4-(Benzo[b]thien-3-yl)-1-piperidinyl]butyl]-2,5,5-trimethyl-4-thiazolidinone maleate] | 50% | 
CC1SC(C)(C)C(=O)N1CCCCN1CCC(c2cc3ccccc3s2)CC1 (stereo not drawn) [3-[4-[4-[Benzo[b]thien-2yl)-1-piperidinyl[butyl]-2,5,5-trimethyl-4-thiazolidinone hydrochloride] |  | 44%
CC1(C)C(=O)N(CCCCN2CCC(c3csc4ccccc34)CC2)CS1(=O)=O [3-[4-[4-[Benzo[b]thien-3-yl)-1-piperidinyl]butyl]-5,5-dimethyl-1,1-dioxo-4-thiazolidinone] |  | 98%
